Assay [1] deals with PI3Kγ (p110γ) Recombinant Human Protein (Homo sapiens (Human), UniProt P48736). Put plainly: PI3K-γ Scintillation Proximity Assay. In kind it is biochemical. As to conditions: read-out: PI3Kγ IC50. In short, it runs like this: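 Radiometric SPA readout: […] bound to WGA beads after overnight shaking, IC50 derived from % activity of DMSO control. Reaction used human p110γ, 2 μM ATP, 20 μM PIP2, pH 6.7 MOPS buffer with MgCl2, DTT, CHAPS, 2% DMSO, room temperature.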
Background: In a scintillation proximity assay essentially only radioactivity close to the scintillant gives light.

Assay [2] addresses PI3Kδ (p110δ/p85α) Recombinant Human Protein (Homo sapiens (Human), UniProt O00329). Description: PI3Kδ Scintillation Proximity Assay. In kind it is biochemical. An outline of the steps: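 IC50 was fitted to percent solvent-control activity from SPA scintillation counts after WGA bead capture of 33P-labelled lipid product. Reaction: 120 min, room temperature, 3.4 nM p110δ/p85α, 20 μM PIP2, 2 μM ATP with tracer, MOPS pH 6.7 buffer containing MgCl2, DTT, CHAPS, 2% DMSO.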

For assay [3], the system named is Phosphorylated Ribosomal Protein S6 (RPS6). Description: THP-1 RPS6 ELISA Assay. As to conditions: THP-1 cells, read-out: PI3Kγ_THP1_RPS6_ELISA IC50. In kind it is cell-based, Human. In short, it runs like this: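 IC50 values come from a curve of percent inhibition against log compound concentration, using phospho-RPS6 ELISA (450 nm) on THP-1 lysates. Cells were serum-starved overnight, exposed to compound for 2 h at 37 °C, then challenged 15 min with 10 nM MCP-1.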

Structures can show the parent of a compound that is named as a salt. Where two headings read alike, the source gives them in different places.

Usually IC50 stands for the concentration needed to halve the response being measured.

Sequence of PI3Kδ (p110δ/p85α) Recombinant Human Protein (O00329 whole entry): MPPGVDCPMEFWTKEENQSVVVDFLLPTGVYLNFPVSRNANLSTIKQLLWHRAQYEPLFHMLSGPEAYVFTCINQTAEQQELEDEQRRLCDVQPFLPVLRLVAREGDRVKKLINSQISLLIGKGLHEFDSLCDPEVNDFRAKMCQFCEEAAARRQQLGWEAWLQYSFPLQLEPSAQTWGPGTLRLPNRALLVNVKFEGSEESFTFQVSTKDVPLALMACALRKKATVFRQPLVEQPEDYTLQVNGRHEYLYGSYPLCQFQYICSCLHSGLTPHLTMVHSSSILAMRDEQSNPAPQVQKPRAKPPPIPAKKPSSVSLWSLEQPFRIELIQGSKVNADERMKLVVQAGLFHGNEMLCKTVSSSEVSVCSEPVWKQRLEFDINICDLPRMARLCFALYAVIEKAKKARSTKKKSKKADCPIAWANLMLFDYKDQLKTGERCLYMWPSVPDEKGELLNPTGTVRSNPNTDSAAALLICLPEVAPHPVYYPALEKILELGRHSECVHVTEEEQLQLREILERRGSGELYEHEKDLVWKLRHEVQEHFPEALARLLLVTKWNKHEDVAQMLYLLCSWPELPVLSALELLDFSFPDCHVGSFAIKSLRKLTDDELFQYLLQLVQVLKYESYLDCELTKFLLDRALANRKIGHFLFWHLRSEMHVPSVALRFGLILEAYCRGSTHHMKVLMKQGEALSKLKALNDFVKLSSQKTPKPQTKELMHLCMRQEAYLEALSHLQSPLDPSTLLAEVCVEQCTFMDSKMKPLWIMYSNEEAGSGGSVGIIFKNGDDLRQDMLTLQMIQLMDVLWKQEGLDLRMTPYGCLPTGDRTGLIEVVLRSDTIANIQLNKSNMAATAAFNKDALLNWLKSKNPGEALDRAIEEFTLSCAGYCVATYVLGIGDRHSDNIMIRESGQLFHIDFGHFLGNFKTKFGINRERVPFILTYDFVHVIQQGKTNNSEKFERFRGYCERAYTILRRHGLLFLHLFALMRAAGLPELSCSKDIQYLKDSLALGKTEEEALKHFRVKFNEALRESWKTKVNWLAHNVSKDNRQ
Sequence of PI3Kδ (p110δ/p85α) Recombinant Human Protein (P27986 whole entry partner): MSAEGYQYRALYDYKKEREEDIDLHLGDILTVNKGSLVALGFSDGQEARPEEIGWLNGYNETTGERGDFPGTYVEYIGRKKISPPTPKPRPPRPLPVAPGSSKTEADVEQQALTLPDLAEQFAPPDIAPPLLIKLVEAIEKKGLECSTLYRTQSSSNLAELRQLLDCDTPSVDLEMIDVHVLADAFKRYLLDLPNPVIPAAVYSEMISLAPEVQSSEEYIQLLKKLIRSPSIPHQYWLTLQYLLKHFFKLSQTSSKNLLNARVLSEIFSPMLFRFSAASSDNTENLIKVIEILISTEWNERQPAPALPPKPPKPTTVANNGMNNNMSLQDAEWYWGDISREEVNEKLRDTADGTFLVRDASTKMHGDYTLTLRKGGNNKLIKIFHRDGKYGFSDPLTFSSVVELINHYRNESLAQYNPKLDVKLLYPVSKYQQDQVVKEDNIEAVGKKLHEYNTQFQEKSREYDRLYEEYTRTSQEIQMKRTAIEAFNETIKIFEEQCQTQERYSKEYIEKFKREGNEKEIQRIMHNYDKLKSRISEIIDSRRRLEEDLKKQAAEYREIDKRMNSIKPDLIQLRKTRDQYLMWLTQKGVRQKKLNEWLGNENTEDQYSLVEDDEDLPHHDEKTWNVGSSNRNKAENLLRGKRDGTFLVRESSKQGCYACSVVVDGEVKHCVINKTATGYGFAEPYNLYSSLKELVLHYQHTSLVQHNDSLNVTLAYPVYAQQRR
Sequence of PI3Kγ (p110γ) Recombinant Human Protein (P48736 whole entry): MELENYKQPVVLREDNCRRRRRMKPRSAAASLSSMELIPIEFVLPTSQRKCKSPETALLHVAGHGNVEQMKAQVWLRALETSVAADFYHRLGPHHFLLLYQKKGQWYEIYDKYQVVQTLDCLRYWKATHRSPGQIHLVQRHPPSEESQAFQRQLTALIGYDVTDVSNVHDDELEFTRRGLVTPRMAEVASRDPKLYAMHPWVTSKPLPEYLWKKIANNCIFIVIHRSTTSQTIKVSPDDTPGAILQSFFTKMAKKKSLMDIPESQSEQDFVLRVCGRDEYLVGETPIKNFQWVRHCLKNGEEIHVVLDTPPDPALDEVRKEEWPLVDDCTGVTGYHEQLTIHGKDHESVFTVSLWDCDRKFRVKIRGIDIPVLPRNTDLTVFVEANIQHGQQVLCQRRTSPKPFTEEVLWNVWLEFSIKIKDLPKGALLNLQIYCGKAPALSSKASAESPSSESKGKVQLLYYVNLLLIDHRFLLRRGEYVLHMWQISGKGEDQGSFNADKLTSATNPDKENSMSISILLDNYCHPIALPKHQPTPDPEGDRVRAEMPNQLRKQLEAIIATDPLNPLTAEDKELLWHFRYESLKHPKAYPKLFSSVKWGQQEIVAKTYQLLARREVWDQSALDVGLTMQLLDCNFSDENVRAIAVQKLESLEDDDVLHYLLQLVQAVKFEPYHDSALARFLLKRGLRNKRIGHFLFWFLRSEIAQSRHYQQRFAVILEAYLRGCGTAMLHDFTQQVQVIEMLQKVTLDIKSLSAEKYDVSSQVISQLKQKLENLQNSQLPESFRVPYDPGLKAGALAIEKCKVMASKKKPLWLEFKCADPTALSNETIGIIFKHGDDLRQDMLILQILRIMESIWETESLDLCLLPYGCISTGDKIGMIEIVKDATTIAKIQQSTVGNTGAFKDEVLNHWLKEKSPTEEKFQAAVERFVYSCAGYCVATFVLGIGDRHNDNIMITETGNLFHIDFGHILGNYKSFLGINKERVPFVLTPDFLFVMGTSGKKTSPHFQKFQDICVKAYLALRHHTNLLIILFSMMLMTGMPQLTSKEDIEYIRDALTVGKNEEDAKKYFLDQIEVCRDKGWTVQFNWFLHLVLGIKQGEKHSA

As for `Cc1ccc(S(=O)(=O)N2CC3(CCN(C)C3=O)C2)cc1-c1cnc2c(N)nc(C(F)(F)F)nn12` [Example 348, 2-((3-(4-amino-2-(trifluoromethyl)imidazo[2,1-f][1,2,4]triazin-7-yl)-4-methylphenyl)sulfonyl)-6-methyl-2,6-diazaspiro[3.4]octan-5-one], the 50% inhibitory concentration (IC50) in assay [1] is below 100 nM; in assay [2], below 100 nM; in assay [3] (Homo sapiens) it was 100 to 500 nM.

Take `Cc1ccc(S(=O)(=O)N2CCCC(CN)C2)cc1-c1cnc2c(N)nc(C(F)(F)F)cn12` (stereo not drawn) [Example 513, 3-(5-((3-(Aminomethyl)piperidin-1-yl)sulfonyl)-2-methylphenyl)-6-(trifluoromethyl)imidazo[1,2-a]pyrazin-8-amine trifluoroacetate]: the IC50 in assay [1] was below 100 nM; in assay [2], 100 to 500 nM; in assay [3] (Homo sapiens) it was 100 to 500 nM.

With `Cc1ccc(S(=O)(=O)N[C@H]2CC[C@H](O)CC2)cc1-c1cnc2c(N)c(-c3cnn(C)c3)ccn12` [Example 12, 3-[8-Amino-7-(1-methyl-1H-pyrazol-4-yl)imidazo[1,2-a]pyridin-3-yl]-N-(trans-4-hydroxycyclohexyl)-4-methylbenzenesulfonamide], the results for the IC50 in assay [1], in assay [2] and in assay [3] (Homo sapiens) were below 100 nM, 100 to 500 nM and 100 to 500 nM, respectively.

With `Nc1nc(C(F)(F)F)cn2c(-c3cc(S(=O)(=O)NC45CCC(CO)(C4)C5)ccc3Cl)cnc12` [Example 393, 3-(8-Amino-6-(trifluoromethyl)imidazo[1,2-a]pyrazin-3-yl)-4-chloro-N-(4-(hydroxymethyl)bicyclo[2.1.1]hexan-1-yl)benzenesulfonamide], the IC50 is below 100 nM in assay [1], 500 to 2000 nM in assay [2] and 100 to 500 nM in assay [3] (Homo sapiens).

On to `Cc1ccc(S(=O)(=O)NC23CC(c4nccn4C)(C2)C3)cc1-c1cnc2c(N)nc(C(F)(F)F)cn12` [Example 294, 3-(8-Amino-6-(trifluoromethyl)imidazo[1,2-a]pyrazin-3-yl)-4-methyl-N-(3-(1-methyl-1H-imidazol-2-yl)bicyclo[1.1.1]pentan-1-yl)benzenesulfonamide trifluoroacetate salt], for which the IC50 in assay [1] was below 100 nM; in assay [2], 500 to 2000 nM; in assay [3] (Homo sapiens), above 1000 nM.

On to `Cc1ccc(S(=O)(=O)N[C@H]2CC[C@H](CC#N)OC2)cc1-c1cnc2c(N)nc(C(=O)NC3CC(F)(F)C3)cn12` [Example 451, 8-amino-3-(5-(N-((3S,6R)-6-(cyanomethyl)tetrahydro-2H-pyran-3-yl)sulfamoyl)-2-methylphenyl)-N-(3,3-difluorocyclobutyl)imidazo[1,2-a]pyrazine-6-carboxamide trifluoroacetate salt], for which the figures for the IC50 in assay [1], in assay [2] and in assay [3] (Homo sapiens) were below 100 nM, 100 to 500 nM and 500 to 1000 nM, respectively.

Turning to `Cc1ccc(S(=O)(=O)NC23CCC(c4cnco4)(CC2)OC3)cc1-c1cnc2c(N)ncnn12` [Example 440, 3-(4-Aminoimidazo[1,2-f][1,2,4]triazin-7-yl)-4-methyl-N-(1-(oxazol-5-yl)-2-oxabicyclo[2.2.2]octan-4-yl)benzenesulfonamide trifluoroacetate salt], the IC50 in assay [1] is below 100 nM; in assay [2], 100 to 500 nM; in assay [3] (Homo sapiens), 100 to 500 nM.

Turning to `Cc1c(F)cc(S(=O)(=O)N[C@H]2CC[C@H](CC#N)OC2)cc1-c1cnc2c(N)nc(C(F)(F)F)nn12` [Example 466, 3-(4-Amino-2-(trifluoromethyl)imidazo[2,1-f][1,2,4]triazin-7-yl)-N-((3S,6R)-6-(cyanomethyl)tetrahydro-2H-pyran-3-yl)-5-fluoro-4-methylbenzenesulfonamide], the IC50 in assay [1], in assay [2] and in assay [3] (Homo sapiens) was below 100 nM each time.

For `[2H][C@]1(NS(=O)(=O)c2ccc(C)c(-c3cnc4c(N)ncnn34)c2)CC[C@@](C)(O)CC1` [Example 507, 3-(4-Aminoimidazo[2,1-f][1,2,4]triazin-7-yl)-N-((1s,4s)-4-hydroxy-4-methylcyclohexyl-1-d)-4-methylbenzenesulfonamide], the IC50 is below 100 nM in assay [1], 100 to 500 nM in assay [2] and 500 to 1000 nM in assay [3] (Homo sapiens).

`Cc1ccc(S(=O)(=O)NCCN2CCCC2=O)cc1-c1cnc2c(N)ncnn12` [Example 138, 3-(4-aminoimidazo[2,1-f][1,2,4]triazin-7-yl)-4-methyl-N-(2-(2-oxopyrrolidin-1-yl)ethyl)benzenesulfonamide]: the IC50 is below 100 nM in assay [1], 500 to 2000 nM in assay [2] and above 1000 nM in assay [3] (Homo sapiens).

Take `Cc1cc(C)c(S(=O)(=O)NC23CCC(CO)(C2)C3)cc1-c1cnc2c(N)ncnn12` [Example 363, 5-(4-Aminoimidazo[1,2-f][1,2,4]triazin-7-yl)-N-(4-(hydroxymethyl)bicyclo[2.1.1]hexan-1-yl)-2,4-dimethylbenzenesulfonamide]: the IC50 in assay [1] is below 100 nM; in assay [2], 500 to 2000 nM; in assay [3] it was 100 to 500 nM.

Take `Cc1ccc(S(=O)(=O)NC23CCC(CN4CC(F)(F)C4)(CC2)OC3)cc1-c1cnc2c(N)ncnn12` [Example 435, 3-(4-Aminoimidazo[1,2-f][1,2,4]triazin-7-yl)-N-(1-((3,3-difluoroazetidin-1-yl)methyl)-2-oxabicyclo[2.2.2]octan-4-yl)-4-methylbenzenesulfonamide trifluoroacetate salt]: the results for the IC50 in assay [1], in assay [2] and in assay [3] (Homo sapiens) were below 100 nM, 100 to 500 nM and 500 to 1000 nM, respectively.

`Cc1ccc(S(=O)(=O)NC23CCC(C(O)c4ccccc4)(CC2)OC3)cc1-c1cnc2c(N)ncnn12` (racemic) [Example 438, 3-(4-Aminoimidazo[1,2-f][1,2,4]triazin-7-yl)-N-(1-(hydroxy(phenyl)methyl)-2-oxabicyclo[2.2.2]octan-4-yl)-4-methylbenzenesulfonamide trifluoroacetate salt (racemic)]: the IC50 in assay [1] was below 100 nM; in assay [2] it was 100 to 500 nM; in assay [3] (Homo sapiens), below 100 nM.

In the case of `Cc1ccc(S(=O)(=O)N[C@H]2CC[C@H](O)CC2)cc1-c1cnc2c(N)nc(-c3ccc(C(=O)N(C)C)cc3F)cn12` [Example 79, 4-[8-Amino-3-(5-{[(trans-4-hydroxycyclohexyl)amino]sulfonyl}-2-methylphenyl)imidazo[1,2-a]pyrazin-6-yl]-3-fluoro-N,N-dimethylbenzamide trifluoroacetate], the IC50 was below 100 nM in assay [1], below 100 nM in assay [2] and 100 to 500 nM in assay [3] (Homo sapiens).

As to `C[C@]1(O)CC[C@H](NS(=O)(=O)c2cc(-c3cnc4c(N)ncnn34)ccc2F)CC1` [Example 376, 5-(4-aminoimidazo[2,1-f][1,2,4]triazin-7-yl)-2-fluoro-N-((1r,4r)-4-hydroxy-4-methylcyclohexyl)benzenesulfonamide], the figures for the IC50 in assay [1], in assay [2] and in assay [3] were below 100 nM, 100 to 500 nM and above 1000 nM, respectively.

Take `Cc1ccc(S(=O)(=O)N[C@H]2CC[C@H](O)CC2)cc1-c1cnc2c(N)nc(-c3ccccc3)cn12` [Example 23, 3-[8-Amino-6-phenylimidazo[1,2-a]pyrazin-3-yl]-N-(trans-4-hydroxycyclohexyl)-4-methylbenzenesulfonamide]: the IC50 in assay [1], in assay [2] and in assay [3] (Homo sapiens) was below 100 nM each time.

On to `Cc1ccc(S(=O)(=O)N[C@H]2CC[C@H](O)CC2)cc1-c1cnc2c(N)nc(-c3c(C)noc3C)cn12` [Example 77, 3-[8-amino-6-(3,5-dimethylisoxazol-4-yl)imidazo[1,2-a]pyrazin-3-yl]-N-(trans-4-hydroxycyclohexyl)-4-methylbenzenesulfonamide], for which the IC50 was below 100 nM in assay [1], 100 to 500 nM in assay [2] and 100 to 500 nM in assay [3] (Homo sapiens).

Consider `Cc1ccc(S(=O)(=O)N[C@H]2CC[C@H](O)CC2)cc1-c1cnc2c(N)c(Cl)ccn12` [Example 11, 3-(8-Amino-7-chloroimidazo[1,2-a]pyridin-3-yl)-N-(trans-4-hydroxycyclohexyl)-4-methylbenzenesulfonamide trifluoroacetate], for which the figures for the IC50 in assay [1], in assay [2] and in assay [3] (Homo sapiens) were below 100 nM, 500 to 2000 nM and below 100 nM, respectively.

In the case of `CNC(=O)c1cn2c(-c3cc(S(=O)(=O)NC4CC(F)(F)C4)ccc3C)cnc2c(N)n1` [Example 447, 8-Amino-3-(5-(N-(3,3-difluorocyclobutyl)sulfamoyl)-2-methylphenyl)-N-methylimidazo[1,2-a]pyrazine-6-carboxamide trifluoroacetate salt], the half-inhibitory concentration (IC50) is below 100 nM in assay [1], 500 to 2000 nM in assay [2] and 500 to 1000 nM in assay [3] (Homo sapiens).

As for `Cc1ccc(NS(=O)(=O)C2CCOCC2)cc1-c1cnc2c(N)nccn12` [Example 471, N-(3-(8-Aminoimidazo[1,2-a]pyrazin-3-yl)-4-methylphenyl)tetrahydro-2H-pyran-4-sulfonamide], the IC50 in assay [1] was 100 to 500 nM; in assay [2] it was 500 to 2000 nM; in assay [3] (Homo sapiens), above 1000 nM.

Consider `Cc1cc(F)c(S(=O)(=O)N2CCCC(CO)C2)cc1-c1cnc2c(N)nc(C(F)(F)F)cn12` (stereo not drawn) [Example 408, (1-((5-(8-Amino-6-(trifluoromethyl)imidazo[1,2-a]pyrazin-3-yl)-2-fluoro-4-methylphenyl)sulfonyl)piperidin-3-yl)methanol], for which the IC50 is below 100 nM in assay [1], 100 to 500 nM in assay [2] and above 1000 nM in assay [3] (Homo sapiens).

The values are drawn from patent publication US10479795B2 (Incyte Corporation, priority 2016, dated 2019).
